Source: US20240139185A1, “COMPOUNDS THAT PARTICIPATE IN COOPERATIVE BINDING AND USES THEREOF” (Revolution Medicines, Inc., priority 2018, published 2024)

Tests used:
[1] = biological target: cyclophilin A (CYPA) (Homo sapiens, UniProt P62937); experiment: CYPA-compound binary complex formation by SPR; conditions: read-out: CYPA Binding Affinity
Description: In order to determine the affinity of compounds of the invention for cyclophilin A (CYPA), we employed surface plasmon resonance binding analysis using the following reagents, instruments and protocol as supplied by the instrument manufacturer.
Reagents and Instrument • 1. Instrument: Biacore S200 (GE Healthcare Life Sciences) • 2. Running buffer: 1×HBS-P+ (1×HBS supplemented with 0.05% Tween20), pH7.4, and 2% DMSO. • 3. Ligand: CypA-Avi • 4. Analyte: Serial dilution of WDB compounds from 50 μM to 0 μM, 2-fold dilution, 10 points (10 mM stock concentration). • 5. Sensor kit: Biotin CAPture Kit (BR28-9202-34, GE Healthcare Life Sciences) • 6. Regeneration buffer: 1 volume of 1 M NaOH and 3 volumes of 8 M guanidine hydrochloride (supplied with CAPture Kit, BR28-9202-34, GE Healthcare Life Sciences)
Experimental Procedure • 1. Capture of CAPreagent: 2 μl/min for 60 seconds. • 2. Immobilization of ligand CypA: Use Fc1 as the reference cell; immobilize CypA at 4 μg/ml using 5 μl/min flowrate on Fc2 (60s), Fc3 (80s) and Fc4 (80s), respectively. • 3. Binding of analytes: Inject WDB compound dilutions sequentially at 50 μl/min for association of 60 seconds. And then let it dissociates in buffer at 50 μl/min for 60 seconds. • 4. Regeneration: 2 injections of regeneration buffer at 30 μl/min for 60 seconds to regenerate the chip surface. • 5. Solvent correction: Run solvent correction at beginning and the end of the run. If run more than 6 compounds, add additional solvent correction every 6 compounds. • 6. Data fitting with built-in Biacore Evaluation Software: Steady-state fitting.

[2] = biological target: T1, BRAF-GTP-KRAS-G12C complex (Homo sapiens, UniProt P01116+P62937, G12C); experiment: KRAS-BRAF complex disruption through competition with CYPA-compound by TR-FRET; conditions: biochemical BRAF-KRAS G12C-GTP disruption assay EC50, with CYPA
T1 construct: 50 nM of His6-KRas G12C-GTP (1-169); 500 nM of tagless CypA (1-165)
Description: In this example, TR-FRET was used to measure the compound-facilitated disruption of a KRAS-BRAF complex. A mixture of tagless Cyclophilin A, His6-KRAS G12C-GMP-PNP, and GST-BRAF RAS binding domain was added to a 384-well assay plate containing compounds of the invention and incubated for 3 hours. A mixture of Anti-His Eu-W1024 and anti-GST allophycocyanin was then added and the reaction was incubated for an additional 1.5 hours. TR-FRET signal was read on an EnVision microplate reader (Perkin Elmer, Ex 320 nm, Em 665/615 nm). Compounds that facilitate disruption of a KRAS_BRAF complex were identified as those eliciting a decrease in the TR-FRET ratio relative to DMSO control wells. To determine the presenter-dependence of the compound-mediated KRAS-BRAF complex disruption, Cyclophilin A was left out of the initial incubation (see Table 5). To determine G12C specificity of the compound-mediated KRAS-BRAF complex disruption, wild-type KRAS was used instead of G12C KRAS (see Table 5).
Reagents and Instrument • Tagless CYPA; 519 μM in PBS buffer, pH 7.4 • GST BRAF; 110 μM in PBS buffer, pH 7.4 • His6-KRASG12C-GMP-PNP; 50 μM in PBS buffer, pH 7.4 • His6-KRASWT-GMP-PNP; 40 μM in PBS buffer, pH 7.4 • Anti-His Eu-W1024 (LANCE® Eu-W1024; Perkin Elmer) • Anti-GST allophycocyanin (Anti-GST IgG conjugated to SureLight®-Allophycocyanin; Perkin Elmer; Product Number AD0059G) • Test compounds, 10 mM in 100% DMSO • EnVision (Perkin Elmer) • Combi MultiDrop liquid dispenser with 8-channel small volume cassette • 384-well ProxiPlate (black)
Experimental Protocol • 1. Use Mosquito to dispense 100 nL/well of compounds (varying concentration in […]) into 384-well black ProxiPlate to make assay-ready-plate (ARP). • 2. Make assay buffer containing 25 mM Hepes pH 7.3, 100 mM NaCl, 5 mM MgCl2, 0.05% BSA, and 0.002% Tween-20. • 3. Make PRE-MIX A: delivers final concentrations of 50 nM of His6-KRas G12C-GTP (1-169) and 500 nM of tagless CypA (1-165) in assay buffer. • a. For presenter dependence experiments, omit addition of tagless CypA • b. For G12C/wt specificity experiments, substitute His6-KRas WT-GTP (1-169) for His6-KRas G12C-GTP (1-169) • 4. Use MultiDrop Combi to dispense PRE-MIX A into ARP, 7 μl/well. Incubate 3 hr at room temperature. • 5. Make PRE-MIX B: delivers final concentrations of 10 nM of anti-His Eu-W1024 and 50 nM of anti-GST APC. • 6. Use MultiDrop Combi to dispense PRE-MIX B into ARP, 3 μl/well. Shake briefly on Combi and incubate 1.5 hr at room temperature. • 7. Read on EnVision (Ex: 320 nm; Em1: 615 nm; Em2: 665 nm). • 8. Data is processed using Dotmatics. Curves are fit using a 4-parameter non-linear fit to determine the EC50 value for formation of the ternary complex.

[3] = tested on: pERK in H358 cells; experiment: pERK inhibition in H358 cells; format: cell-based, human; conditions: 4 hours treatment, read-out: Cellular pERK inhibition
Description: H358 cells (5500 cells) derived from a human lung cancer were plated in a 96 well plate in media (100 uL, RPMI with 10% FBS). After 24 hours, cells were treated for 4 hours with compound or DMSO. Cells were washed twice with room temperature TBS (200 uL) and fixed for 20 minutes with 4% paraformaldehyde diluted with TBS (150 uL). Cells were washed four times for five minutes with 0.1% TritonX/TBS (150 uL) to permeabilize the membrane. Cells were incubated with TBS blocking buffer (100 uL) at room temperature for 60 minutes. Primary antibody (Phospho-p44/42 MAPK (Erk1/2) (Thr202/Tyr204) (D13.14.4E) XP® Rabbit mAb #4370, Cell Signaling Technology; 1:200) was added, and the cells were incubated overnight at 4 C. The cells were washed four times for five minutes with 0.1% Tween 20/TBS (150 uL). Secondary antibody (IRDye® 800CW Goat-Anti-Rabbit IgG, Li-Cor Biosciences; 1:1000) and DRAQ5™ (Invitrogen; 1:2000) was added, and the cells were incubated for 1 hour at room temperature. The cells were washed four times for five minutes with 0.1% Tween 20/TBS (150 uL) and scanned using the LICOR (700 and 800 nm).

Row | Kd [1] [µM] | EC50 [2] [µM] | IC50 [3] [µM] | SMILES
1 | 5 to 15 | ≤ 0.5 | > 10 | CC(C)C(C(=O)NC1Cc2cc(O)cc(c2)-c2ccc3c(C(C)(C)C#N)cn(c3c2)CC(F)COC(=O)C2CCCN(N2)C1=O)N(C)C(=O)C1CN(C(=O)CCl)C1 (single isomer, unassigned) [Compound 25]
2 | ≤ 5 | ≤ 0.5 | > 10 | Cc1nc2ccc3cc2n1C[C@H](C)COC(=O)[C@@H]1CCCN(N1)C(=O)[C@@H](NC(=O)[C@H](C(C)C)N(C)C(=O)C1CN(C(=O)CCl)C1)Cc1cc(O)cc-3c1 [Compound 147]
3 | > 15 | > 5 | > 10 | C=CC(=O)N1CCN(C(C(=O)NC2Cc3cc(O)cc(c3)-c3ccc4c(C(C)(C)C#N)cn(c4c3)CC(C)(C)COC(=O)C3CCCN(N3)C2=O)C(C)C)C(=O)C1 (centres unmarked) [Compound 14]
4 |  | ≤ 0.5 | 1 to 10 | CC(C)[C@@H](C(=O)N[C@H]1Cc2cc(O)cc(c2)-c2ccc3c(-c4cccnc4)cn(c3c2)C[C@H](C)COC(=O)[C@@H]2CCCN(N2)C1=O)N(C)C(=O)C1CN(C(=O)CCl)C1 [Compound 51]
5 | ≤ 5 |  | ≤ 1 | CC1COC(=O)C2CCCN(N2)C(=O)C(NC(=O)C(C(C)C)N(C)C(=O)C2CN(C(=O)CCl)C2)Cc2cc(O)cc(c2)-c2ccc3c(-c4ccccc4C#N)cn(c3c2)C1 [Compound 5, 1-(2-chloroacetyl)-N-((2S)-1-(((6^3S,4S,10S)-1^3-(2-cyanophenyl)-2^5-hydroxy-10-methyl-5,7-dioxo-6^1,6^2,6^3,6^4,6^5,6^6-hexahydro-1^1H-8-oxa-1(6,1)-indola-6(1,3)-pyridazina-2(1,3)-benzenacycloundecaphane-4-yl)amino)-3-methyl-1-oxobutan-2-yl)-N-methylazetidine-3-carboxamide]
6 | ≤ 5 |  | > 10 | C=CC(=O)N1CCN([C@H](C(=O)N[C@H]2Cc3cc(O)cc(c3)-c3ccc4c(C5CCOCC5)cn(c4c3)CCCOC(=O)[C@@H]3CCCN(N3)C2=O)C(C)C)C1=O [Compound 229, (2S)-2-(3-acryloyl-2-oxoimidazolidin-1-yl)-N-((6^3S,4S)-2^5-hydroxy-5,7-dioxo-1^3-(tetrahydro-2H-pyran-4-yl)-6^1,6^2,6^3,6^4,6^5,6^6-hexahydro-1^1H-8-oxa-1(6,1)-indola-6(1,3)-pyridazina-2(1,3)-benzenacycloundecaphane-4-yl)-3-methylbutanamide]
7 | ≤ 5 |  | 1 to 10 | CC1COC(=O)[C@@H]2CCCN(N2)C(=O)[C@@H](NC(=O)[C@H](C(C)C)N(C)C(=O)C2CN(C(=O)CCl)C2)Cc2cc(O)cc(c2)-c2ccc3c(c2)c(cn3CC2COC2)C1 (single isomer, unassigned) [Compound 228]
8 |  | ≤ 0.5 | > 10 | C#Cc1nn2c3cc(ccc13)-c1cc(O)cc(c1)C[C@H](NC(=O)[C@H](C(C)C)N(C)C(=O)C1CN(C(=O)CCl)C1)C(=O)N1CCC[C@H](N1)C(=O)OCC(C)(C)C2 [Compound 233, 1-(2-chloroacetyl)-N-((2S)-1-(((6^3S,4S)-1^3-ethynyl-2^5-hydroxy-10,10-dimethyl-5,7-dioxo-6^1,6^2,6^3,6^4,6^5,6^6-hexahydro-1^1H-8-oxa-1(6,1)-indazola-6(1,3)-pyridazina-2(1,3)-benzenacycloundecaphane-4-yl)amino)-3-methyl-1-oxobutan-2-yl)-N-methylazetidine-3-carboxamide]
9 |  | ≤ 0.5 | > 10 | CC(C)[C@@H](C(=O)N[C@H]1Cc2cc(O)cc(c2)-c2ccc3c(Cc4cccnc4)cn(c3c2)C[C@H](C)COC(=O)[C@@H]2CCCN(N2)C1=O)N(C)C(=O)C1CN(C(=O)CCl)C1 [Compound 70]
10 | 5 to 15 |  | > 10 | CC1COC(=O)[C@@H]2CCCN(N2)C(=O)[C@@H](NC(=O)[C@H](C(C)C)N(C)C(=O)C2CN(C(=O)CCl)C2)Cc2cc(O)cc(c2)-c2ccc3c(c2)c(cn3CC2COC2)C1 (single isomer, unassigned) [Compound 227]
11 |  | > 5 | 1 to 10 | C=CC(=O)N1CCC(C(=O)N(C)C(C(=O)NC2Cc3cc(O)cc(c3)-c3ccc4c(c3)c(cn4C(C)(C)C#N)CC(C)(C)COC(=O)C3CCCN(N3)C2=O)C2CCCCC2)C1 (centres unmarked) [Compound 396]
12 |  | 0.5 to 5 | > 10 | CC(C)[C@@H](C(=O)N[C@H]1Cc2cc(N)cc(c2)-c2ccc3c(C#N)cn(c3c2)CC(C)(C)COC(=O)[C@@H]2CCCN(N2)C1=O)N(C)C(=O)C1CN(C(=O)CCl)C1 [Compound 230, N-((2S)-1-(((6^3S,4S)-2^5-amino-1^3-cyano-10,10-dimethyl-5,7-dioxo-6^1,6^2,6^3,6^4,6^5,6^6-hexahydro-1^1H-8-oxa-1(6,1)-indola-6(1,3)-pyridazina-2(1,3)-benzenacycloundecaphane-4-yl)amino)-3-methyl-1-oxobutan-2-yl)-1-(2-chloroacetyl)-N-methylazetidine-3-carboxamide]
13 |  | 0.5 to 5 | > 10 | C=CC(=O)N1CC(C(=O)N(C)[C@H](C(=O)N[C@H]2Cc3cc(O)cc(c3)-c3ccc4c(C5CCN(C)CC5)nn(c4c3)CC(C)(C)COC(=O)[C@@H]3CCCN(N3)C2=O)C(C)C)C1 [Compound 232, 1-acryloyl-N-((2S)-1-(((6^3S,4S)-2^5-hydroxy-10,10-dimethyl-1^3-(1-methylpiperidin-4-yl)-5,7-dioxo-6^1,6^2,6^3,6^4,6^5,6^6-hexahydro-1^1H-8-oxa-1(6,1)-indazola-6(1,3)-pyridazina-2(1,3)-benzenacycloundecaphane-4-yl)amino)-3-methyl-1-oxobutan-2-yl)-N-methylazetidine-3-carboxamide]
